Values joined by “and” are separate entries in the source; they are usually repeats but may differ in a detail not shown here. Equal entries are not always repeated.
System: 521955-158-R2-J5-PDC complex spheroid growth
Assay: Anticancer human tumor 521955-158-R2-J5-PDC patient-derived pancreatic carcinoma cell line growth inhibition [AhR]
Settings: for viability, T/C: stronger effect = lower value
In short: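 Agents were dosed in half-log steps down from roughly clinical Cmax, or from 10 microM where Cmax was unknown, alone and with AhR antagonists. Read-out: percent test/control growth of tumor spheroids containing HUVEC and MSC stromal cells.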

[1] = curve of first compound, second compound 0.1 µM
[2] = curve of first compound, second compound 0.316 µM
[3] = curve of first compound, second compound 1 µM
[4] = curve of first compound, second compound 3.16 µM
[5] = curve of first compound, second compound 10 µM
[6] = second compound 0.1 µM, first compound 0.0316 µM
[7] = second compound 0.1 µM, first compound 0.1 µM
[8] = second compound 0.1 µM, first compound 0.316 µM
[9] = second compound 0.1 µM, first compound 1 µM
[10] = second compound 0.316 µM, first compound 0.0316 µM
[11] = second compound 0.316 µM, first compound 0.1 µM
[12] = second compound 0.316 µM, first compound 0.316 µM
[13] = second compound 0.316 µM, first compound 1 µM
[14] = second compound 1 µM, first compound 0.0316 µM
[15] = second compound 1 µM, first compound 0.1 µM
[16] = second compound 1 µM, first compound 0.316 µM
[17] = second compound 1 µM, first compound 1 µM
[18] = second compound 3.16 µM, first compound 0.0316 µM
[19] = second compound 3.16 µM, first compound 0.1 µM
[20] = second compound 3.16 µM, first compound 0.316 µM
[21] = second compound 3.16 µM, first compound 1 µM
[22] = second compound 10 µM, first compound 0.0316 µM
[23] = second compound 10 µM, first compound 0.1 µM
[24] = second compound 10 µM, first compound 0.316 µM
[25] = second compound 10 µM, first compound 1 µM
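For viability, T/C in this document: spheroids mix tumor cells with HUVEC endothelium and human MSC stroma; luminescence taken as viability surrogate after a week of drug exposure.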

Q: For `O=C(c1cc(Cc2n[nH]c(=O)c3ccccc23)ccc1F)N1CCN(C(=O)C2CC2)CC1`, which viability, T/C (compound 0.0316 µM) is on record?
A: The viability, T/C was 95.8% and 118% and 96.5%.

Q: And the viability, T/C (compound 0.1 µM)?
A: The viability, T/C was 104% and 72.7% and 112%.

Q: And the viability, T/C (compound 0.316 µM)?
A: The viability, T/C was 117% and 80.1% and 96%.

Q: What about the viability, T/C (compound 1 µM) of the same compound?
A: The viability, T/C was 89.8% and 84.7% and 92.4%.

Q: What about the viability, T/C (compound 3.16 µM) of the same compound?
A: Its viability, T/C is 104% and 92.2% and 90.4%.

Q: And the viability, T/C (compound 10 µM)?
A: The viability, T/C was 84.5% and 65.4% and 76.3%.

Q: What about the IC50 (curve of compound) of the same compound?
A: Its IC50 is > 10 µM.

Q: How did the IC50 [1] turn out when `Nc1ncn(C2CC(O)C(CO)O2)c(=O)n1` (centres undefined) + Cc1ccccc1N=Nc1ccc(NC(=O)c2ccnn2C)c(C)c1 was run?
A: Its IC50 is > 1 µM.

Q: And the IC50 [2]?
A: The IC50 was 0.811 µM.

Q: What about the IC50 [3] of the same compound?
A: The IC50 was > 1 µM.

Q: And the IC50 [4]?
A: The IC50 was > 1 µM.

Q: And the IC50 [5]?
A: The IC50 was > 1 µM.

Q: And the viability, T/C (second compound 0.1 µM, first compound 0.00316 µM)?
A: The viability, T/C was 79%.

Q: What about the viability, T/C (second compound 0.1 µM, first compound 0.01 µM) of the same compound?
A: The viability, T/C was 86.1%.

Q: And the viability, T/C [6]?
A: The viability, T/C was 92.4%.

Q: And the viability, T/C [7]?
A: The viability, T/C was 62.6%.

Q: What about the viability, T/C [8] of the same compound?
A: The viability, T/C was 55.5%.

Q: And the viability, T/C [9]?
A: Its viability, T/C is 50.7%.

Q: And the viability, T/C (second compound 0.316 µM, first compound 0.00316 µM)?
A: The viability, T/C was 88.5%.

Q: What about the viability, T/C (second compound 0.316 µM, first compound 0.01 µM) of the same compound?
A: The viability, T/C was 104%.

Q: What about the viability, T/C [10] of the same compound?
A: The viability, T/C was 86.6%.

Q: And the viability, T/C [11]?
A: The viability, T/C was 83.8%.

Q: What about the viability, T/C [12] of the same compound?
A: Its viability, T/C is 61.9%.

Q: What about the viability, T/C [13] of the same compound?
A: Its viability, T/C is 47.4%.

Q: What about the viability, T/C (second compound 1 µM, first compound 0.00316 µM) of the same compound?
A: Its viability, T/C is 90.5%.

Q: And the viability, T/C (second compound 1 µM, first compound 0.01 µM)?
A: Its viability, T/C is 126%.

Q: What about the viability, T/C [14] of the same compound?
A: The viability, T/C was 96.6%.

Q: And the viability, T/C [15]?
A: The viability, T/C was 90.2%.

Q: And the viability, T/C [16]?
A: Its viability, T/C is 94.2%.

Q: And the viability, T/C [17]?
A: The viability, T/C was 65.4%.

Q: What about the viability, T/C (second compound 3.16 µM, first compound 0.00316 µM) of the same compound?
A: The viability, T/C was 106%.

Q: What about the viability, T/C (second compound 3.16 µM, first compound 0.01 µM) of the same compound?
A: Its viability, T/C is 120%.

Q: And the viability, T/C [18]?
A: The viability, T/C was 110%.

Q: What about the viability, T/C [19] of the same compound?
A: The viability, T/C was 88.3%.

Q: And the viability, T/C [20]?
A: Its viability, T/C is 104%.

Q: And the viability, T/C [21]?
A: The viability, T/C was 67.1%.

Q: What about the viability, T/C (second compound 10 µM, first compound 0.00316 µM) of the same compound?
A: Its viability, T/C is 138%.

Q: What about the viability, T/C (second compound 10 µM, first compound 0.01 µM) of the same compound?
A: Its viability, T/C is 147%.

Q: And the viability, T/C [22]?
A: Its viability, T/C is 140%.

Q: And the viability, T/C [23]?
A: Its viability, T/C is 127%.

Q: What about the viability, T/C [24] of the same compound?
A: The viability, T/C was 95.2%.

Q: What about the viability, T/C [25] of the same compound?
A: The viability, T/C was 88%.

Q: How did the IC50 [1] turn out when `COc1cccc2c1C(=O)c1c(O)c3c(c(O)c1C2=O)CC(O)(C(=O)CO)CC3OC1CC(N)C(O)C(C)O1` (centres undefined) + Cc1cncc(-c2nc(NCCc3c[nH]c4ccccc34)c3ncn(C(C)C)c3n2)c1 was run?
A: Its IC50 is < 0.0316 µM.

Q: And the IC50 [2]?
A: Its IC50 is < 0.0316 µM.

Q: And the IC50 [3]?
A: The IC50 was < 0.0316 µM.

Q: And the IC50 [4]?
A: The IC50 was 0.0726 µM.

Q: What about the IC50 [5] of the same compound?
A: Its IC50 is 0.108 µM.

Q: And the viability, T/C [6]?
A: Its viability, T/C is 53.6%.

Q: And the viability, T/C [7]?
A: The viability, T/C was 35.6%.

Q: And the viability, T/C [8]?
A: Its viability, T/C is 36.2%.

Q: What about the viability, T/C [9] of the same compound?
A: The viability, T/C was 2.01%.

Q: What about the viability, T/C (second compound 0.1 µM, first compound 3.16 µM) of the same compound?
A: The viability, T/C was 6.72%.

Q: And the viability, T/C (second compound 0.1 µM, first compound 10 µM)?
A: The viability, T/C was 11.6%.

Q: What about the viability, T/C [10] of the same compound?
A: Its viability, T/C is 49%.

Q: And the viability, T/C [11]?
A: The viability, T/C was 35%.

Q: What about the viability, T/C [12] of the same compound?
A: The viability, T/C was 39.2%.

Q: What about the viability, T/C [13] of the same compound?
A: The viability, T/C was 0.95%.

Q: And the viability, T/C (second compound 0.316 µM, first compound 3.16 µM)?
A: The viability, T/C was 6.23%.

Q: And the viability, T/C (second compound 0.316 µM, first compound 10 µM)?
A: The viability, T/C was 14.8%.

Q: What about the viability, T/C [14] of the same compound?
A: Its viability, T/C is 51.2%.

Q: What about the viability, T/C [15] of the same compound?
A: The viability, T/C was 30.6%.

Q: And the viability, T/C [16]?
A: The viability, T/C was 46.8%.

Q: What about the viability, T/C [17] of the same compound?
A: The viability, T/C was 1.72%.

Q: And the viability, T/C (second compound 1 µM, first compound 3.16 µM)?
A: The viability, T/C was 5.39%.

Q: And the viability, T/C (second compound 1 µM, first compound 10 µM)?
A: Its viability, T/C is 16.6%.

Q: What about the viability, T/C [18] of the same compound?
A: Its viability, T/C is 64.2%.

Q: And the viability, T/C [19]?
A: Its viability, T/C is 37.3%.

Q: What about the viability, T/C [20] of the same compound?
A: Its viability, T/C is 41.3%.

Q: And the viability, T/C [21]?
A: The viability, T/C was 2.7%.

Q: And the viability, T/C (second compound 3.16 µM, first compound 3.16 µM)?
A: The viability, T/C was 8.4%.

Q: What about the viability, T/C (second compound 3.16 µM, first compound 10 µM) of the same compound?
A: Its viability, T/C is 12.2%.

Q: What about the viability, T/C [22] of the same compound?
A: The viability, T/C was 64.2%.

Q: And the viability, T/C [23]?
A: The viability, T/C was 48.4%.

Q: And the viability, T/C [24]?
A: The viability, T/C was 29%.

Q: What about the viability, T/C [25] of the same compound?
A: Its viability, T/C is 0.47%.

Q: And the viability, T/C (second compound 10 µM, first compound 3.16 µM)?
A: The viability, T/C was 3.33%.

Q: What about the viability, T/C (second compound 10 µM, first compound 10 µM) of the same compound?
A: The viability, T/C was 9.06%.

Q: Which results are given for `Nc1ccn(C2OC(CO)C(O)C2(F)F)c(=O)n1` (centres undefined)?
A: viability, T/C (compound 0.0316 µM): 73.8% and 54.7% and 44.6%; viability, T/C (compound 0.1 µM): 79.4% and 73.8% and 60.9%; viability, T/C (compound 0.316 µM): 62.2% and 61% and 53.9%; viability, T/C (compound 1 µM): 39.4% and 28.6% and 24.9%; viability, T/C (compound 3.16 µM): 29.8% and 15.9% and 17.8%; viability, T/C (compound 10 µM): 28.7% and 13.2% and 15.3%; IC50 (curve of compound): 0.59 µM and 0.472 µM and 0.359 µM
